Among the data in patent US8735588B2, “Nematocidal sulfonamides” (E I Du Pont De Nemours and Company, priority 2009, dated 2014) are melting point values, retold here.

SMILES strings stand for the structures. Bounds are passed on as bounds.

As to `Cc1cc(S(=O)(=O)[N-]C(=O)c2cn3cc(C(F)(F)F)cc(Cl)c3n2)c(C)cc1C#N.[Na+]` [Compound 477], the melting point is greater than 250 °C.

`CCn1cc(S(=O)(=O)NC(=O)c2cn3cc(C(F)(F)F)cc(Cl)c3n2)c(C)n1` [Compound 357, 8-chloro-N-[(1-ethyl-3-methyl-1H-pyrazol-4-yl)sulfonyl]-6-(trifluoromethyl)-imidazo[1,2-a]pyridine-2-carboxamide] yielded a melting point of 251 to 252 °C.

Turning to `COc1ccc(Cl)c(S(=O)(=O)[N-]C(=O)c2cn3cc(C(F)(F)F)cc(Cl)c3n2)c1.[Na+]` [Compound 478], the melting point was greater than 250 °C.

Molecule `Cc1cc(S(=O)(=O)NC(=O)c2cn3cc(C(F)(F)F)cc(Cl)c3n2)c(C)cc1C#N` [Compound 19, 8-chloro-N-[(4-cyano-2,5-dimethylphenyl)sulfonyl]-6-(trifluoromethyl)imidazo[1,2-a]pyridine-2-carboxamide] registered a melting point of 244 to 245 °C.

Regarding `Cc1cc(S(=O)(=O)NC(=O)c2cn3cc(C(F)(F)F)cc(Cl)c3n2)c(C)cc1C#N` [Compound 479], the melting point was 185 to 186 °C.

`CCc1ccc(Cl)c(S(=O)(=O)NC(=O)c2cn3cc(C(F)(F)F)cc(Cl)c3n2)c1` [Compound 356, 8-chloro-N-[(2-chloro-5-ethylphenyl)sulfonyl]-6-(trifluoromethyl)imidazo[1,2-a]pyridine-2-carboxamide] came in with a melting point greater than 250 °C.
